Experimental data from patent US9150568B2, “Compositions and methods for modulating FXR” (NOVARTIS AG, priority 2010, dated 2015).
Values belong to the compound of their own block, whether it stands above or below them.

Target: T1, human Farnesoid X Receptor (FXR) ligand binding domain (GST-FXR LBD) (Homo sapiens, UniProt Q96RI1)
T1 construct: purchased Invitrogen
T1 sequence (Q96RI1 193-472 isoform Q96RI1-2): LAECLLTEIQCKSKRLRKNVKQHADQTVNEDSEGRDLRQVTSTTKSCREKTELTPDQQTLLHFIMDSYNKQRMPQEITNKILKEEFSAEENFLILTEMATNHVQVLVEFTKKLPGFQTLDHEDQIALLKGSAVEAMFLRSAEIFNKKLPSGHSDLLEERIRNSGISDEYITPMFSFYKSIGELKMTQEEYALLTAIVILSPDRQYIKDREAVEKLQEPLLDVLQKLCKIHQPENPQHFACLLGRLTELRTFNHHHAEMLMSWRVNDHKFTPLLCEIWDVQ
Test: Human GST-FXR LBD co-activator interaction assay (HTRF)
Type: biochemical
Conditions: GST-FXR LBD / biotin-SRC-1 peptide FRET; response relative to GW4064; read-out: FXR Co-activator interaction assay (EC50)
From the text: Human GST-FXR LBD Co-activator interaction Assay. The FXR HTRF assay is a biochemical assay measuring the interaction between FXR and a coactivator protein (SRC1). The ligand-induced interaction with a coactivator protein is a critical step in transcriptional activation by FXR. Thus, this is an assay designed to measure FXR agonist activity of compounds.
The ligand-dependent interaction between GST-FXR LBD and a peptide derived from Steroid Receptor Coactivator-1 (SRC-1) was monitored by Fluorescence Resonance Energy Transfer (FRET). […] Test compounds (in DMSO solution) and detection reagents (anti-GST-Cryptate labeled antibody and Streptavidin-XL665 conjugate; CisBio) were added in assay buffer containing 50 mM KF.
A negative control (without Streptavidin-XL665) was run with each assay and represented the background fluorescence. A reference FXR agonist, GW4064, was included in each experiment as positive control. The efficacy of each test compound was compared to that of GW4064. At each concentration, the relative activity of the test compound was expressed as Response %=(Rsample−RDMSO)/(Rpositive−RDMSO), where Rsample is the HTRF response (expressed in Delta F %) for the test compound, Rpositive is the maximal response for GW4064 at saturating concentrations, and RDMSO is the response for DMSO control. The EC50 values were calculated using GraphPad Prism (GraphPad Software) using non-linear regression curve fit (log(agonist) vs. response—variable slope (four parameters)).

EC50: 3.8 nM
Structure (SMILES): CCOC(=O)c1ccc2nc(N3C4CC[C@H]3C[C@H](OCc3c(-c5c(F)cccc5F)noc3C3CC3)C4)sc2c1 [Example 6-5A]

Structure (SMILES): NC(=O)c1cc(F)c2nc(N3C4CC[C@H]3C[C@H](OCc3c(-c5ccccc5OC(F)(F)F)noc3C3CC3)C4)sc2c1 [Example 5-1]
EC50: 7.6 nM

Structure (SMILES): Cn1c(C(=O)O)cc2ccc(N3C4CC[C@H]3CC(OCc3c(-c5ccccc5OC(F)(F)F)noc3C3CC3)C4)cc21 (stereo partly drawn) [Example 28-4]
EC50: 2 nM

Structure (SMILES): COc1cc(C(=O)O)cc2sc(N3[C@@H]4CC[C@H]3C[C@@H](OCc3c(-c5c(Cl)cccc5Cl)noc3C3CC3)C4)nc12 [Example 30-71]
EC50: 0.3 nM

Structure (SMILES): O=C(NCCS(=O)(=O)O)c1cc(F)c2nc(N3C4CC[C@H]3C[C@H](OCc3c(-c5ccccc5OC(F)(F)F)noc3C3CC3)C4)sc2c1 [Example 16-2]
EC50: 0.4 nM

Structure (SMILES): Cc1cccc(C)c1-c1noc(C2CC2)c1COC1CC2CC[C@@H](C1)N2c1ccc(C(=O)O)c(C)n1 (stereo partly drawn) [Example 30-49]
EC50: 140 nM

Structure (SMILES): O=C(O)c1cc(F)c2nc(N3C4CC[C@H]3CC(OCc3c(C5CCCCC56CC6)noc3C3CC3)C4)sc2c1 (stereo partly drawn) [Example 29-6]
EC50: 2 nM

Structure (SMILES): O=C(O)c1cnc(N2C3CC[C@H]2CC(OCc2c(-c4ccccc4OC(F)F)noc2C2CC2)C3)nc1 (stereo partly drawn) [Example 22-10B]
EC50: 8 nM

Structure (SMILES): Cc1cc(C(=O)O)nc(N2C3CC[C@H]2CC(OCc2c(-c4c(F)cccc4F)noc2C2CC2)C3)n1 (stereo partly drawn) [Example 22-18B]
EC50: 18 nM

Structure (SMILES): O=C(O)c1ccc(N2[C@@H]3CC[C@H]2C[C@@H](OCc2c(-c4ccccc4C4CC4)noc2C2CC2)C3)nc1 [Example 30-24]
EC50: 4 nM

Structure (SMILES): O=C(O)c1cccc2nc(N3C4CC[C@H]3CC(OCc3c(-c5ccccc5OC(F)(F)F)noc3C3CC3)C4)ccc12 (stereo partly drawn) [Example 30-55]
EC50: 1 nM

Structure (SMILES): O=C(O)c1cnc(N2C3CC[C@H]2CC(OCc2c(-c4ccccc4C(F)(F)F)noc2C2CC2)C3)cc1C(F)(F)F (stereo partly drawn) [Example 21-4B]
EC50: 20 nM

EC50: 21 nM
Structure (SMILES): O=C(O)C1(c2ccc(N3C4CC[C@H]3CC(OCc3c(-c5ccccc5OC(F)(F)F)noc3C3CC3)C4)cc2)CC1 (stereo partly drawn) [Example 28-7]

Structure (SMILES): Cc1cccc(F)c1-c1noc(C2CC2)c1COC1CC2CC[C@@H](C1)N2c1ccc(C(=O)O)cn1 (stereo partly drawn) [Example 30-12]
EC50: 5 nM

Structure (SMILES): CC1CC1c1noc(C2CC2)c1CO[C@@H]1CC2CC[C@@H](C1)N2c1nc2c(F)cc(C(=O)O)cc2s1 (stereo partly drawn) [Example 12-1]
EC50: 25 nM

Structure (SMILES): O=C(O)c1cnc(N2[C@@H]3CC[C@H]2C[C@@H](OCc2c(-c4c(F)cccc4F)noc2C2CC2)C3)cn1 [Example 22-15B]
EC50: 28 nM

Structure (SMILES): O=C(O)c1cc(F)c2nc(N3C4CC[C@H]3CC(OCc3c(C5CCC6CC6C5)noc3C3CC3)C4)sc2c1 (stereo partly drawn) [Example 29-7]
EC50: 5 nM

Structure (SMILES): COc1cc(C(=O)O)cc2sc(N3C4CC[C@H]3C[C@H](OCc3c(C5CCCCC5C(F)(F)F)noc3C3CC3)C4)nc12 (stereo partly drawn) [Example 8-2]
EC50: 2.4 nM

Structure (SMILES): O=C(O)c1cn2nc(N3[C@@H]4CC[C@H]3C[C@@H](OCc3c(-c5c(F)cccc5F)noc3C3CC3)C4)ccc2n1 [Example 31-5]
EC50: 10 nM

EC50: 1.8 nM
Structure (SMILES): Cc1cc(C(=O)O)cc2sc(N3C4CC[C@H]3CC(OCc3c(-c5ccccc5F)noc3C3CC3)C4)nc12 (stereo partly drawn) [Example 30-34]

EC50: 0.2 nM
Structure (SMILES): O=C(O)c1ccc2nc(N3C4CC[C@H]3CC(OCc3c(-c5c(Cl)cccc5Cl)noc3C3CC3)C4)sc2c1 (stereo partly drawn) [Example 30-70]

Structure (SMILES): O=C(O)CNC(=O)c1ccc(N2C3CC[C@H]2C[C@H](OCc2c(-c4ccccc4OC(F)(F)F)noc2C2CC2)C3)nc1 [Example 15-3]
EC50: 17 nM

Structure (SMILES): Cc1cc(C(=O)O)nc(N2C3CC[C@H]2C[C@H](OCc2c(C4CCCCC4)noc2C2CC2)C3)n1 [Example 8-7B]
EC50: 130 nM

Structure (SMILES): O=C(O)c1cnc2cc(N3C4CC[C@H]3CC(OCc3c(-c5ccccc5OC(F)(F)F)noc3C3CC3)C4)ccc2c1 (stereo partly drawn) [Example 28-3]
EC50: 0.8 nM
